The source of these data is patent US9688664B2, “Modulators of fatty acid amide hydrolase” (JANSSEN PHARMACEUTICA NV, priority 2010, dated 2017).

Data set [1] has as its system rat. The data set can be described thus: Primary Observation (Irwin) Test in the rat. Type of data set: in vivo. The note with it: for Hypothermia: at 15 to 60 min and at 180 min; for Decreased muscle tone (rats affected/tested): at 60 to 120 min. On the procedure:
Primary Observation (Irwin) Test in the Rat
The method, which detects the first toxic dose, the active dose-range and the main effects of a test substance on behavior and physiological function, follows that described by Irwin et al., Psychopharmacologia, 1968, 13, 222-257. […] All animals within a treatment group were observed simultaneously. Behavioral modifications, physiological and neurotoxicity symptoms, rectal temperature and pupil diameter were recorded according to a standardized observation grid derived from that of Irwin. The grid contains the following items: death, convulsions, tremor, Straub tail, altered activity, jumping, abnormal gait (rolling, tip-toe), motor uncoordination, altered abdominal muscle tone, loss of grasping, akinesia, catalepsy, loss of traction, loss of balance, fore-paw treading, writhes, piloerection, stereotypies (sniffing, chewing, head movements), head twitches, scratching, altered respiration, aggression, altered fear/startle, altered reactivity to touch, ptosis, exophthalmia, loss of righting reflex, loss of corneal reflex, analgesia, defecation/diarrhea, salivation, lacrimation, rectal temperature (hypothermia/hyperthermia) and pupil diameter (myosis/mydriasis). The test substances were evaluated at 2 doses (10 and 60 mg/kg), administered p.o. immediately before the test, and compared with a vehicle control group. Observations were performed 15, 30, 60, 120 and 180 minutes after administration of the test substances/vehicles and also 24 hours later.

For data set [2] the following is noted: in vivo; cited from earlier work.
The conditions of data set [3]: in vivo; cited from earlier work. The source holds these as a separate data set.
Data set [4] concerns CREAE mice. Conditions: cited from earlier work.
The target of data set [5] is CYP2D6 (Homo sapiens (Human), UniProt P10635). The data set can be described thus: Drug-Drug Interaction (DDI) assay, CYP inhibition in human liver microsomes. On the technique in general: Liver microsomes are vesicles of endoplasmic reticulum, rich in cytochrome P450 enzymes.
Chain of CYP2D6 (P10635 whole entry): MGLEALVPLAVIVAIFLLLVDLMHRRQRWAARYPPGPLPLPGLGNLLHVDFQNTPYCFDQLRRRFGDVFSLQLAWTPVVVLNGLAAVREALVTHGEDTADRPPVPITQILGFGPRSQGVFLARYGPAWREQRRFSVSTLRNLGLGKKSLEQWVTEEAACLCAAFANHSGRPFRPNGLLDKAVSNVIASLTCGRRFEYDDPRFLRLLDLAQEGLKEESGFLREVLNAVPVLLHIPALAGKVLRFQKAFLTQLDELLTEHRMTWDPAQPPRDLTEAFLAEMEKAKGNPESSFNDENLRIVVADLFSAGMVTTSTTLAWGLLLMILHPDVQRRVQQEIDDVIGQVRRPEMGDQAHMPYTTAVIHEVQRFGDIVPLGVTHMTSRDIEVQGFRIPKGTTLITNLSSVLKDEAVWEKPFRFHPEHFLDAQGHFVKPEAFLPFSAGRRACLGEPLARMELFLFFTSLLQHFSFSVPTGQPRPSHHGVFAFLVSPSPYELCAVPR
Procedure: Drug-Drug Interaction (DDI) Assay
The assay was set up and executed using a Biomek FXp robotic liquid handling workstation (Beckman Coulter Corp., Fullerton, Calif.), integrated with a Cytomat shaking incubator set at 37° C. […] A batch of human liver microsomes from 50 donors, pooled and characterized by BD Gentest, (Cat #457111, lot 01220, 20 mg/mL in 250 mM sucrose) was used. Each substrate was incubated at a protein concentration of 0.1, 0.15 or 0.2 mg/mL in a total incubation volume of 0.16 mL. The incubates were prepared in 100 mM potassium phosphate buffer (pH 7.4) supplemented with 5 mM magnesium chloride and 1 mM EDTA. Quinidine was used as a positive control inhibitor for CYP2D6. Quinidine was prepared as a working solution in organic solvent (primarily methanol, with DMSO and acetonitrile as secondary solvents) and was spiked into the microsomal suspension to yield the desired concentration level. The solution was then serially diluted with additional microsomal suspension to yield eight concentration levels. Final organic content was less than 0.07%. […] The final organic content was 0.2%. Incubations were performed in triplicate for each probe substrate.
The control inhibitor (quinidine) and marker substrate (dextromethorphan or bufuralol) were transferred to the incubation vessels (60 μL aliquots each). After a pre-incubation period at 37° C., the reactions were initiated by the addition of a 40 μL aliquot of NADPH regenerating system (BD Gentest). […] Incubation times were 12 minutes for both dextromethorphan and bufuralol. Reactions were terminated by the direct addition of acetonitrile (160 μL) to the incubation mix followed by transfer to a pooling plate containing additional acetonitrile (400 μL).
The incubation reactions were pooled by equal test compound or control inhibitor concentration, transferred to a Phenomenex Strata™ Impact protein precipitation filter plate containing acetonitrile and internal standards (100 μL of a mixture of the following deuterated compounds ranging in concentration from 0.5 to 2.8 μM: hydroxybufuralol-d9, dextrorphan-d3). The resulting filtrate was evaporated to dryness under a nitrogen flow, then reconstituted in 250 μL mobile phase (1:1 methanol:water, containing 0.1% acetic acid). Samples and standards were analyzed on a Sciex API4000 triple quadrupole mass spectrometer. The data were acquired in Analyst 1.4.1 (Applied Biosystems/MDS Sciex). For IC50 assays, the area ratios of the metabolite and internal standard chromatographic peaks were transferred to SigmaPlot (version 8.0) and plotted on a semi-log scale (percent residual activity vs. inhibitor concentration) to determine the IC50 value.
Data set [6] deals with T1, FAAH (Homo sapiens (Human), UniProt O00519). The experiment in a line: Assay Method 1: human FAAH assay (3H-anandamide hydrolysis in cell homogenate). Type of data set: biochemical. The note with it: average of results. On the procedure: A. Transfection of Cells with Human FAAH
T1 sequence (O00519 whole entry): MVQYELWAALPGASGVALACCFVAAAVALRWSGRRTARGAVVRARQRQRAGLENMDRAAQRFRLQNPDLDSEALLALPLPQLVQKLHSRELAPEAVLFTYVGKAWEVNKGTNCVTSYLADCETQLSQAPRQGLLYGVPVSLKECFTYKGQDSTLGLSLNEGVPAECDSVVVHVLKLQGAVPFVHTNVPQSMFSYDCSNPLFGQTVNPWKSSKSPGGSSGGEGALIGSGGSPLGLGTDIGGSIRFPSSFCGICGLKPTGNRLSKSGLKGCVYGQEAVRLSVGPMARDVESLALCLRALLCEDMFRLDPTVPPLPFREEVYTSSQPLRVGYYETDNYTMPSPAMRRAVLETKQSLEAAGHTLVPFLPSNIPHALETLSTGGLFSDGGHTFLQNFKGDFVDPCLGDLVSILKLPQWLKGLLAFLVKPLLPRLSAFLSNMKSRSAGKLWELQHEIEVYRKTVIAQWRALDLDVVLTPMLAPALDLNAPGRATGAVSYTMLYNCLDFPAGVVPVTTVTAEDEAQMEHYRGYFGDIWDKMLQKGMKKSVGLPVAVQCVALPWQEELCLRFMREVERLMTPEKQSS
(§1) A 10-cm tissue culture dish with a confluent monolayer of SK-N-MC cells was split 2 days (d) prior to transfection. Using sterile technique, the media was removed and the cells were detached from the dish by the addition of trypsin. One fifth of the cells were then placed onto a new 10-cm dish. Cells were grown in a 37° C. incubator with 5% CO2 in Minimal Essential Media Eagle with 10% Fetal Bovine Serum. After 2 d, cells were approximately 80% confluent. These cells were removed from the dish with trypsin and pelleted in a clinical centrifuge. The pellet was re-suspended in 400 μL complete media and transferred to an electroporation cuvette with a 0.4 cm gap between the electrodes. Supercoiled human FAAH cDNA (1 μg) was added to the cells and mixed. The voltage for the electroporation was set at 0.25 kV, and the capacitance was set at 960 μF. After electroporation, the cells were diluted into complete media (10 mL) and plated onto four 10-cm dishes. Because of the variability in the efficiency of electroporation, four different concentrations of cells were plated. The ratios used were 1:20, 1:10, and 1:5, with the remainder of the cells being added to the fourth dish. The cells were allowed to recover for 24 h before adding the selection media (complete media with 600 μg/mL G418). After 10 d, dishes were analyzed for surviving colonies of cells. […]

For data set [7], the target named is rat FAAH (Rattus norvegicus (Rat), UniProt P97612). The data set can be described thus: Assay Method 2: rat FAAH assay (3H-anandamide hydrolysis in cell homogenate). Type of data set: biochemical. Conditions: average of results. On the procedure:
A. Transfection of Cells with Rat FAAH
as §1, with “rat” for “human”

The test system of data set [8] is rats. The note with it: cited from earlier work.
Data set [9] has as its system rats. The note with it: cited from earlier work. This is another data set of the same source.
For data set [10], the target named is T1, FAAH. The note with it: cited from earlier work.
The test system of data set [11] is rats. The note with it: rat; cited from earlier work.
Data set [12] concerns rats. Conditions: cited from earlier work. This is another data set of the same source.
Where [13] appears, read: read-out: 2D6 Bufuralol IC50, substrate bufuralol.
Where [14] appears, read: read-out: 2D6 Dextromethorphan IC50, substrate dextromethorphan.

pIC50: −log10 of the molar value. Entries after “also recorded” stand apart in the source; their conditions may differ. Where two headings read alike, the source gives them in different places.

Chain of rat FAAH (P97612 whole entry): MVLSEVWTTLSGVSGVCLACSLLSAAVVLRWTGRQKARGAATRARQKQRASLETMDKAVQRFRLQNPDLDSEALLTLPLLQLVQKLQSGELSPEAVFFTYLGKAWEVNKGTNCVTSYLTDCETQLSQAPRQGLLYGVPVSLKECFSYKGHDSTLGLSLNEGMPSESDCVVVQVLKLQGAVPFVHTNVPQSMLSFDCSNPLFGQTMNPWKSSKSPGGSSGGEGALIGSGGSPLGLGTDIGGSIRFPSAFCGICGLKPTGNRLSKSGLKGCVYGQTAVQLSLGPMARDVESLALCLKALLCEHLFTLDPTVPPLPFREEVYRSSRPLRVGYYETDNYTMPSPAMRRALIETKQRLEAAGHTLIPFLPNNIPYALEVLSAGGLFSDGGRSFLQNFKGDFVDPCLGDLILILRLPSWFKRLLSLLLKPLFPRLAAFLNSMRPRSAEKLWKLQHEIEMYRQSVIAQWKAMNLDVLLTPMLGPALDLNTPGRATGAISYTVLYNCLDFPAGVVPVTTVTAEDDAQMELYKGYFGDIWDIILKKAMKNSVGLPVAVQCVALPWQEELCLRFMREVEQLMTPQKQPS

For `Cl.O=C(Nc1cnccc1Cl)N1CCN(Cc2ccc3c(c2)OC(F)(F)O3)CC1`, the “Increased reactivity to touch (rats affected/tested)” value is 1 out of 4 in data set [1] (10 mg/kg p.o., at 180 min, hydrochloride); 1 out of the 4 in [1] (60 mg/kg p.o., at 60 min); 1 out of the 4 in data set [1] (60 mg/kg p.o., at 180 min). Further, the “Sedative/depressant effects (sedation, motor signs and hypothermia)” value in data set [1] (60 mg/kg p.o.) was “not observed”. Further, in [1] (60 mg/kg p.o., at 60 min), the “Increased abdominal muscle tone (rats affected/tested)” value is on record as 1 out of 4. In addition, in data set [1] (dose-range 10-60 mg/kg p.o.), the “General effects in the Irwin Test” value is “weak and transient arousing effects in only one rat”. For the same compound, in data set [1] (up to 24 hours after administration, 10-60 mg/kg p.o.), the Other signs entry is “no other signs were observed”.
In the case of `O=C(Nc1ccccc1)N1CCN(c2nc(-c3ccccc3)ns2)CC1` [4-(3-Phenyl-[1,2,4]thiadiazol-5-yl)-piperazine-1-carboxylic acid phenylamide], in [2], the “efficacy in neuropathic pain model” value is given as “efficacious”. Further, the “efficacy in acute burn injury pain model” value in data set [3] is on record as “efficacious”.
Regarding `CCCCCCCCCCCCCCCCS(=O)(=O)F` [AM374], the spasticity entry in data set [4] is “significantly reduce spasticity”.
Take `Cl.O=C(Nc1cccnc1)N1CCN(Cc2ccc3c(c2)OC(F)(F)O3)CC1` [Comparator Compound HCl]: in [1] (10 mg/kg p.o., at 15 min), the “Increased reactivity to touch (rats affected/tested)” value was “all 3 rats; also recorded: (3/3) at 15”. In [1] (60 mg/kg p.o.), the “Sedative/depressant effects (sedation, motor signs and hypothermia)” value is “presence of sedative/depressant effects”; the Hypothermia entry is listed as “induced hypothermia; also recorded: slight induction at 15”; the “Decreased muscle tone (rats affected/tested)” value is given as “all 3 rats; also recorded: (3/3) at 60 to 120”. Besides, the “Sedation (rats affected/tested)” value in data set [1] (60 mg/kg p.o., 15 to 120 min) is given as “all 3 rats; also recorded: (3/3) 15 to 120 min”. Further, the “Abnormal gait (rolling) (rats affected/tested)” value in data set [1] (60 mg/kg p.o., at 15 min) was “all 3 rats; also recorded: (3/3) at 15 min”.
As to `O=C(Nc1cccnc1)N1CCN(Cc2ccc3c(c2)OC(F)(F)O3)CC1` [Comparator Compound], the pIC50 in data set [5] (setting [13]) is 5.49. The pIC50 in data set [5] (setting [14]) was 5.70. Moreover, in [1] (10 mg/kg p.o., at 15 min), the “Increased reactivity to touch (rats affected/tested)” value is recorded as “all rats tested”. For the same compound, the “Sedation (rats affected/tested)” value in data set [1] (60 mg/kg p.o., 15 to 120 min) is reported as “all rats tested”. In addition, in data set [1] (60 mg/kg p.o.), the Hypothermia result is given as “induced hypothermia” and the “Decreased muscle tone (rats affected/tested)” value is on record as “all rats”. Also, the “Abnormal gait (rolling) (rats affected/tested)” value in data set [1] (60 mg/kg p.o., at 15 min) is “all rats tested”.
With `O=C(Nc1cnccc1Cl)N1CCN(Cc2ccc3c(c2)OC(F)(F)O3)CC1` [Example 1], the pIC50 in [5] (setting [13]) is 4.62; in [5] (setting [14]) it was 4.96; in data set [6], 7.12; in data set [7] it was 6.49. Also, the “Increased reactivity to touch (rats affected/tested)” value in data set [1] (10 mg/kg p.o., at 180 min) is “(1/4) at”; in data set [1] (60 mg/kg p.o., at 60 min), “(1/4) at 60 min”; in [1] (60 mg/kg p.o., at 180 min), “(1/4) at 180 min”. Moreover, in [1] (60 mg/kg p.o.), the “Abnormal gait (rats affected/tested)” value is on record as “(0/4)”. Further, the “Hypothermia (rats affected/tested)” value in data set [1] (60 mg/kg p.o.) was “(0/4)”. In addition, in data set [1] (60 mg/kg p.o.), the “Sedation (rats affected/tested)” value was “(0/4)”. In data set [1] (60 mg/kg p.o., at 60 min), the “Increased abdominal muscle tone (rats affected/tested)” value is recorded as “(1/4) at 60 min”.
For `O=C(CCCCCCc1ccccc1)c1ncc(-c2ccccn2)o1` [OL-135], in data set [8], the “analgesic activity, tail immersion” value is recorded as “analgesic activity”. For the same compound, the “analgesic efficacy/activity, hot plate” value in data set [9] is listed as “analgesic activity”. Also, the FAAH inhibition entry in [10] is on record as “potent inhibitor”.
Regarding `NC(=O)c1cccc(-c2cccc(OC(=O)NC3CCCCC3)c2)c1` [URB-597], the “analgesic efficacy/activity, hot plate” value in data set [9] is given as “analgesic efficacy”. For the same compound, the “analgesic efficacy, formalin test” value in data set [11] is given as “analgesic efficacy”. For the same compound, the “efficacy in model of anxiety” value in [12] is reported as “efficacy”.

Usually pIC50 stands for the IC50 on a negative log10 scale, so that one unit is a factor of ten.
